Columns and labels:
[1] = Solubility testing: saturation concentration of dye in non-polar solvent; conditions: for Saturation concentration (%): in decane
Procedure: A typical solubility test consists of one or more dyes dissolved in a suitable non-polar (hydrophobic) solvent, for example decane, at a concentration of 20% by weight for each dye. Samples are first vortex mixed for approximately 3 minutes and sonicated at 50° C. br 30 mins. They are then stirred for approximately 16 hours to ensure complete saturation. After stirring, samples are left to stand at room temperature for 2 hours before filtering through a 200 nm PTFE filter to give a saturated solution of dye in solvent.
The saturation concentrations and/or absorbance data for cells of varying thickness can be derived using the Beer-Lambert law:
Where A is absorbance (arbitrary unit) e=Molar extinction coefficient, c=Concentration (mol/l), l=path length (cm).
(§1) The absorbance is measured using a Hitachi UV3310 UV-vis spectrophotometer.

[2] = Absorbance of the saturated dye solution at 5 micron thickness (Beer-Lambert law, UV-vis); assay type: physicochemical; conditions: in decane; for Absorbance (theoretical), at 5 micron thickness: Table 8
Procedure: as §1

[3] = at the wavelength printed in the row, Table 6b
[4] = at the wavelength printed in the row, Table 5
[5] = at the wavelength printed in the row

CCCCCCCCN(CCCCCCCC)c1ccc(/N=N/c2cc(OCC(CC)CCCC)c(/N=N/c3ccc([N+](=O)[O-])cc3[N+](=O)[O-])cc2OCC(CC)CCCC)c(C)c1 (stereo not shown) [Dye 1a, 4-((E)-(4-((E)-(2,4-Dinitrophenyl)diazenyl)-2,5-bis(2-ethylhexyloxy)phenyl)diazenyl)-3-methyl-N,N-dioctylaniline]
Saturation wt % in decane ([1]; Table 1 Blue/Black Dyes): 100 wt % | Saturation concentration (%) ([1]; Table 7): 1.000% | Absorbance (theoretical), at 5 um thickness ([2]; at the wavelength printed in the row, Table 7): 0.188

CCCCC(CC)COc1cc(/N=N/c2ccc([N+](=O)[O-])cc2[N+](=O)[O-])c(OCC(CC)CCCC)cc1/N=N/c1ccc(N(CC(CC)CCCC)CC(CC)CCCC)cc1C (stereo not shown) [Dye 1b, 4-((E)-(4-((E)-(2,4-Dinitrophenyl)diazenyl)-2,5-bis(2-ethylhexyloxy)phenyl)diazenyl)-3-methyl-N,N-di-(2-ethylhexyl)aniline]
Saturation wt % in decane ([1]; Table 1 Blue/Black Dyes): 17.19 wt %

CCCCC(CC)COc1cc(/N=N/c2ccc([N+](=O)[O-])cc2[N+](=O)[O-])c(OCC(CC)CCCC)cc1/N=N/c1ccc(N(CCC(C)CC(C)(C)C)CCC(C)CC(C)(C)C)cc1C (stereo not shown) [Dye 1c, 4-((E)-(4-((E)-(2,4-Dinitrophenyl)diazenyl)-2,5-bis(2-ethylhexyloxy)phenyl)diazenyl)-3-methyl-N,N-d i-(3,5,5-trimethylhexyl)aniline]
Saturation wt % in decane ([1]; Table 1 Blue/Black Dyes): 3.53 wt %

CCCCCCCCCCN(CCCCCCCCCC)c1ccc(/N=N/c2cc(OCC(CC)CCCC)c(/N=N/c3ccc([N+](=O)[O-])cc3[N+](=O)[O-])cc2OCC(CC)CCCC)c(C)c1 (stereo not shown) [Dye 1d, 4-((E)-(4-((E)-(2,4-Dinitrophenyl)diazenyl)-2,5-bis(2-ethylhexyloxy)phenyl)diazenyl)-3-methyl-N,N-di-n-decylaniline]
Saturation wt % in decane ([1]; Table 1 Blue/Black Dyes): 2.39 wt %

CCCCCCCCCCCCN(CCCCCCCCCCCC)c1ccc(/N=N/c2cc(OCC(CC)CCCC)c(/N=N/c3ccc([N+](=O)[O-])cc3[N+](=O)[O-])cc2OCC(CC)CCCC)c(C)c1 (stereo not shown) [Dye 1e, 4-((E)-(4-((E)-(2,4-Dinitrophenyl)diazenyl)-2,5-bis(2-ethylhexyloxy)phenyl)diazenyl)-3-methyl-N,N-di-n-dodecylaniline]
Saturation wt % in decane ([1]; Table 1 Blue/Black Dyes): 5.17 wt %

CCCCCCCCCCCCCCN(CCCCCCCCCCCCCC)c1ccc(/N=N/c2cc(OCC(CC)CCCC)c(/N=N/c3ccc([N+](=O)[O-])cc3[N+](=O)[O-])cc2OCC(CC)CCCC)c(C)c1 (stereo not shown) [Dye 1f, 4-((E)-(4-((E)-(2,4-Dinitrophenyl)diazenyl)-2,5-bis(2-ethylhexyloxy)phenyl)diazenyl)-3-methyl-N,N-di-n-tetradecylaniline]
Saturation wt % in decane ([1]; Table 1 Blue/Black Dyes): 15.2 wt %

CCCCCCCCCCCCN(CCC(C)CC(C)(C)C)c1ccc(/N=N/c2cc(OCC(CC)CCCC)c(/N=N/c3ccc([N+](=O)[O-])cc3[N+](=O)[O-])cc2OCC(CC)CCCC)c(C)c1 (stereo not shown) [Dye 1g, 4-((E)-(4-((E)-(2,4-Dinitrophenyl)diazenyl)-2,5-bis(2-ethylhexyloxy)phenyl)diazenyl)-3-methyl-N-dodecyl-N-(3,5,5-trimethylhexyl)aniline]
Saturation wt % in decane ([1]; Table 1 Blue/Black Dyes): 16.67 wt %

CCCCCCCCCCCCCCCCCCN(CCCCCCCCCCCCCCCCCC)c1cc(NC(C)=O)c(/N=N/c2c(C#N)cc([N+](=O)[O-])cc2C#N)cc1OC [Dye 8, N-(2-((2,6-Dicyano-4-nitrophenyl)diazenyl)-5-(dioctadecylamino)-4-methoxyphenyl)acetamide]
Dye saturation concentration % in Decane as solvent [1]: 0.003% | Dye saturation concentration % in (Decane/dye 2 as solvent) [1]: 0.18% | Dye saturation concentration % in (Decane/dye 12 as solvent) [1]: 0.18% | Saturation wt % in decane ([1]; Table 2 Cyan Dyes): 0.003 wt %

CCCCCCCCN(CCCCCCCC)c1ccc(/N=N/c2snc(C)c2C#N)c(NC(C)=O)c1 [Dye 11, N-(2-((4-Cyano-3-methylisothiazol-5-yl)diazenyl)-5-(dioctylamino)phenyl)acetamide]
Dye saturation concentration % in Decane as solvent [1]: 0.19% | Dye saturation concentration % in (Decane/dye 2 as solvent) [1]: 0.62% | Dye saturation concentration % in (Decane/dye 12 as solvent) [1]: 0.41% | Saturation wt % in decane ([1]; Table 3 Magenta Dyes): 0.19 wt %

CCCCCCCCCCCCCCc1ccc(/N=N/c2c(C)c(C#N)c(=O)n(CC(CC)CCCC)c2O)cc1 (stereo not shown) [Dye 12, (E)-1-(2-Ethylhexyl)-6-hydroxy-4-methyl-2-oxo-5-((4-tetradecylphenyl)diazenyl)-1,2-dihydropyridine-3-carbonitrile]
Saturation wt % in decane ([1]; Table 4 Yellow Dyes): 1.03 wt % | Saturation concentration (%) ([1]; Table 6b): 1.03% | Absorbance at wavelength, at 5 micron thickness [2, 3]: 0.332

CCCCCCCCCCCCCCc1ccc(/N=N/c2c(C)cc(=O)n(CC(CC)CCCC)c2O)cc1 (stereo not shown) [Dye 13, (E)-1-(2-ethylhexyl)-6-hydroxy-4-methyl-5-((4-tetradecylphenyl)diazenyl)pyridin-2(1H)-one]
Saturation wt % in decane ([1]; Table 4 Yellow Dyes): 3.72 wt % | Saturation concentration (%) ([1]; Table 6b): 3.72% | Absorbance at wavelength, at 5 micron thickness [2, 3]: 0.915

CCCCc1ccc(/N=N/c2ccc(N(CCCC)CCCC)cc2)cc1 [Dye 14]
Saturation wt % in decane ([1]; Table 4 Yellow Dyes): 9.95 wt %

CCCCCCCCN(CCCCCCCC)c1ccc(/N=N/c2ccc([N+](=O)[O-])cc2)c(C)c1 [Dye 15, (E)-3-Methyl-4-((4-nitrophenyl)diazenyl)-N,N-dioctylaniline]
Saturation wt % in decane ([1]; Table 4 Yellow Dyes): 10.50 wt % | Saturation concentration (%) ([1]; Table 5): 8.58% | Absorbance at wavelength, at 5 micron thickness [2, 4]: 2.765

CCCCCNc1ccc(NCCCCC)c2c1C(=O)c1ccccc1C2=O [Oil Blue N, reference compound]
Dye saturation concentration % in Decane as solvent [1]: 0.62% | Dye saturation concentration % in (Decane/dye 2 as solvent) [1]: 1.34% | Dye saturation concentration % in (Decane/dye 12 as solvent) [1]: 1.14% | Saturation concentration (%) ([1]; Table 5): 0.657% | Saturation concentration (%) ([1]; Table 6a): 0.657% | Saturation concentration (%) ([1]; Table 8): 0.66% | Absorbance at wavelength, at 5 micron thickness ([2]; 646 nm, Table 6a): 0.0938 | Absorbance at wavelength, at 5 micron thickness [2, 4]: 0.114 | Absorbance (theoretical), at 5 micron thickness [2, 5]: 0.0938

Cc1ccc(C)c(N=Nc2cc(C)c(N=Nc3c(O)ccc4ccccc34)cc2C)c1 [Oil Red O, reference compound]
Dye saturation concentration % in Decane as solvent [1]: 1.17% | Dye saturation concentration % in (Decane/dye 2 as solvent) [1]: 1.91% | Dye saturation concentration % in (Decane/dye 12 as solvent) [1]: 1.49% | Saturation concentration (%) ([1]; Table 5): 1.615% | Absorbance at wavelength, at 5 micron thickness [2, 4]: 0.2594

CCCCNc1ccc(NCCCC)c2c1C(=O)c1ccccc1C2=O [Solvent Blue 35, reference compound]
Dye saturation concentration % in Decane as solvent [1]: 0.33% | Dye saturation concentration % in (Decane/dye 2 as solvent) [1]: 0.69% | Dye saturation concentration % in (Decane/dye 12 as solvent) [1]: 0.62% | Saturation concentration (%) ([1]; Table 5): 0.385% | Saturation concentration (%) ([1]; Table 6a): 0.385% | Saturation concentration (%) ([1]; Table 8): 0.385% | Absorbance at wavelength, at 5 micron thickness ([2]; 646 nm, Table 6a): 0.0531 | Absorbance at wavelength, at 5 micron thickness [2, 4]: 0.044 | Absorbance (theoretical), at 5 micron thickness [2, 5]: 0.0531

Cc1ccccc1/N=N/c1ccc(/N=N/c2c(O)ccc3ccccc23)c(C)c1 [Solvent Red 24, reference compound]
Saturation concentration (%) ([1]; Table 5): 0.6% | Absorbance at wavelength, at 5 micron thickness [2, 4]: 0.1579

Reference: US20150015931A1, “ELECTROWETTING FLUIDS” (Merck Patent GmbH, priority 2012, published 2015)
